Laboratory results: patent US20180360791A1, “FATTY ACID MONOGLYCERIDE COMPOSITIONS” (Stiefel Laboratories, Inc., priority 2009, published 2018)
Values after ≈ are worked out from the molar mass of the structure shown. Structures can show the parent of a compound that is named as a salt.

Key:
[1] = test system: Trichophyton mentagrophytes; assay: Liquid broth assay (MIC); assay type: cell-based; details: for antifungal activity ranking: liquid broth assay, rank 1 = most active, same ranking for both dermatophytes; for MIC: Trichophyton mentagrophytes, 672 h, liquid (broth) culture, incubated up to 4 weeks, one value without distinguishing the two dermatophytes, read-out: minimal inhibitory concentration (MIC)
Protocol: (§1) The minimum inhibitory concentration (MIC) of various test agents were tested in a standard protocol against two dermatophytes: Trichophyton rubrum and Trichophyton mentagrophyles:
(§2) Trichophyton rubrum and Trichophyton mentagrophytes were grown on potato dextrose agar (PDA) at 30° C. for 1-5 weeks. One clone was picked randomly and grown in sabouraud dextrose broth (SDB) to a density of 1×10^6 colony forming units (cfu) per ml. Various concentrations of test agents were added to the dermatophyte cultures and incubated for up to 4 weeks. Each week, an aliquot of the liquid culture was taken and placed on a PDA plate, and incubated for up to 3 weeks to assess growth. The plates were examined and photographed each week. Cultures were considered positive when more than 2 colonies were found per plate.

Trichophyton rubrum = assay: Liquid broth assay (MIC); assay type: cell-based; details: for antifungal activity ranking: liquid broth assay, rank 1 = most active, same ranking for both dermatophytes; for MIC: Trichophyton rubrum, 672 h, liquid (broth) culture, incubated up to 4 weeks, one value without distinguishing the two dermatophytes, read-out: minimal inhibitory concentration (MIC)
Protocol: as §1, §2

Row | SMILES | antifungal activity ranking [1] | antifungal activity ranking (Trichophyton rubrum) | MIC [1] | MIC (Trichophyton rubrum)
1 | Clc1ccc(C(Cn2ccnc2)OCc2ccsc2Cl)c(Cl)c1 (stereo not drawn) [tioconazole] | 2 | 2 |  | 
2 | Cc1cc(C2CCCCC2)n(O)c(=O)c1 [ciclopirox] | 4 | 4 | 31.3 µg/mL (≈ 151 µM) | 31.3 µg/mL (≈ 151 µM)
3 | Clc1ccc(COC(Cn2ccnc2)c2ccc(Cl)cc2Cl)cc1 (stereo not drawn) [econazole, econazole Nitrate] | 1 | 1 | < 3.9 µg/mL | < 3.9 µg/mL
4 | CC(=O)N1CCN(c2ccc(OCC3COC(Cn4ccnc4)(c4ccc(Cl)cc4Cl)O3)cc2)CC1 (stereo not drawn) [ketoconazole] | 3 | 3 |  | 
5 | CCCCCCCCCC(=O)OCC(O)CO (racemic) [1-monocaprin, 1-decanoyl-rac-glycerol] | 5 | 5 | 250 µg/mL (≈ 1010 µM) | 250 µg/mL (≈ 1010 µM)
6 | CN(C/C=C/C#CC(C)(C)C)Cc1cccc2ccccc12 [Terbinafine, terbinafine HCl] | 1 | 1 | < 3.9 µg/mL | < 3.9 µg/mL
7 | CCCCc1ccc(C(=O)O)nc1 [Fusaric acid, fusaric Acid] | 6 | 6 | 500 µg/mL (≈ 2790 µM) | 500 µg/mL (≈ 2790 µM)
